pEC50: −log10 of the molar value. Where two headings read alike, the source gives them in different places.
Assays:
[1] = biological target: T1, Recombinant Rhinovirus 3C protease serotype 14 (Human rhinovirus 14, UniProt P03303); experiment: biochemical
T1 construct: Recombinant Rhinovirus 3C proteases from serotypes 14, 16, and 2; made in house

[2] = biological target: T2, Recombinant Rhinovirus 3C protease serotype 2 (Human rhinovirus 2, UniProt P04936); format: biochemical
T2 construct: Recombinant Rhinovirus 3C proteases from serotypes 14, 16, and 2; made in house
T2 sequence (P04936 1508-1690): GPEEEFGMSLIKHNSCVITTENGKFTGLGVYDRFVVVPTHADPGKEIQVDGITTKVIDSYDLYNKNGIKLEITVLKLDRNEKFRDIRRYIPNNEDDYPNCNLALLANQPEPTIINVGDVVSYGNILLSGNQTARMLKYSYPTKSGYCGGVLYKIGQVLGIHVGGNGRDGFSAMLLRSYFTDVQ

[3] = biological target: Recombinant Rhinovirus 3C protease serotype 16 (Human rhinovirus 16, UniProt Q82122); format: biochemical
Recombinant Rhinovirus 3C protease serotype 16, sequence (Q82122 1511-1693): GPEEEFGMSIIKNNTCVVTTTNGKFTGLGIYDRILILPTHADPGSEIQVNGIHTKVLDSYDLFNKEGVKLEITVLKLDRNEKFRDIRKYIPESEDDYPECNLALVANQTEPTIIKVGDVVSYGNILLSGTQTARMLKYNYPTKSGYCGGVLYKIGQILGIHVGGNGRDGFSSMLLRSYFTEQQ
Procedure: Stock solutions (50 mM, in DMSO) of various compounds were prepared; dilutions were in the same solvent. […] Assays contained 2% DMSO, 50 mM tris pH 7.6, 1 mM EDTA, a compound at the indicated concentrations, approximately 1 μM substrate, and 50-100 nM protease. […] The kobs/I values were obtained from reactions initiated by addition of enzyme rather than substrate. RVP activity is measured in the fluorescence resonance energy transfer assay. […] In the uncleavaed peptide, the EDANS fluorescence was quenched by the proximal DABCYL moiety. When the peptide was cleaved, the quenching was relieved, and activity was measured as an increase in fluorescence signal.
In the above table, all data are for RVP serotype-14 unless otherwise noted in parentheses. All strains of human rhinovirus (HRV) were purchased from American Type Culture Collection (ATCC) except for serotype 14, which was produced from the infectious cDNA clone constructed and supplied to Applicants by Dr. Robert Rueckert at the Institute for Molecular Virology, University of Wisconsin, Madison, Wis. The column designated INHIB represents the percent inhibition at 10 minute preincubation with 50 nM RVP prior to addition of substrate. The data in the column designated kobs/I was measured from progress curves enzyme start experiments.

[4] = system: HI-HeLa cells; experiment: Cytotoxicity in mock-infected HI-HeLa cells (XTT, antirhinoviral assay); format: cell-based; conditions: mock-infected HI-HeLa cells, read-out: CC50
Procedure: (§1) In the Cell Protection Assay, the ability of compounds to protect cells against HRV infection was measured by the XTT dye reduction method. This method is described in Weislow, O. S., Kiser, R., Fine, D. L., Bader, J., Shoemaker, R. H., Boyd, M. R., J. Natl. Cancer Inst. 1989, 81, 577-586, the disclosure of which is incorporated herein by reference.
(§2) Infected or mock-infected cells were resuspended at 8×10^5 cells per mL and incubated with appropriate concentrations of compounds of formula I. Two days later, XTT/PMS was added to test plates, and the amount of formazan produced was quantified spectrophotometrically at 450/650 nm. […] The therapeutic index (TI) was calculated by dividing the CC50 by the EC50.
HRV stocks were propagated, and viral assays were performed in HI-HeLa cells (ATCC). Cells were grown in Minimal Essential Medium, available from Life Technologies, with 10% fetal bovine serum.

[5] = system: HRV serotype-14; experiment: Antirhinoviral HI-HeLa cell culture assay (XTT cell protection), HRV-14; format: cell-based, human rhinovirus; conditions: HRV serotype-14, HI-HeLa cells, m.o.i. 0.13, two days, XTT; read-out: EC50
Procedure: as §1, §2
(§3) All strains of human rhinovirus (HRV) for use in this assay were purchased from American Type Culture Collection (ATCC) except for HRV serotype-14, which was produced from the infectious cDNA clone constructed and supplied to Applicants by Dr. Robert Rueckert at the Institute for Molecular Virology, University of Wisconsin, Madison, Wis. HRV stocks were propagated, and viral assays were performed in HI-HeLa cells (ATCC). Cells were grown in Minimal Essential Medium, available from Life Technologies, with 10% fetal bovine serum.
(§4) The compounds were tested against control compounds WIN 51711, WIN 52084, and WIN 54954, all obtained from Sterling-Winthrop Pharmaceuticals, and control compound Pirodavir, obtained from Janssen Pharmaceuticals. Antiviral data obtained for the test compounds are shown in Table 2 where all data are for HRV serotype-14 unless otherwise noted in parentheses.

[6] = system: HRV serotype 89; experiment: Antirhinoviral HI-HeLa cell culture assay (XTT cell protection), HRV-89; format: cell-based, human rhinovirus; conditions: HRV serotype 89, HI-HeLa cells
Procedure: as §1, §2, §3, §4

[7] = system: HRV serotype 1A; experiment: Antirhinoviral HI-HeLa cell culture assay (XTT cell protection), HRV-1A; format: cell-based, human rhinovirus; conditions: HI-HeLa cells
Procedure: as §1, §2, §3, §4

[8] = system: HRV serotype 10; experiment: Antirhinoviral HI-HeLa cell culture assay (XTT cell protection), HRV-10; format: cell-based, human rhinovirus; conditions: HRV serotype 10, HI-HeLa cells
Procedure: as §1, §2, §3, §4

[9] = system: HRV serotype 39; experiment: Antirhinoviral HI-HeLa cell culture assay (XTT cell protection), HRV-39; format: cell-based, human rhinovirus; conditions: HRV serotype 39, HI-HeLa cells
Procedure: as §1, §2, §3, §4

[10] = system: HRV serotype 2; experiment: Antirhinoviral HI-HeLa cell culture assay (XTT cell protection), HRV-2; format: cell-based, human rhinovirus; conditions: HRV serotype 2, HI-HeLa cells
Procedure: as §1, §2, §3, §4

[11] = system: HRV serotype 16; experiment: Antirhinoviral HI-HeLa cell culture assay (XTT cell protection), HRV-16; format: cell-based, human rhinovirus; conditions: HRV serotype 16, HI-HeLa cells
Procedure: as §1, §2, §3, §4

T1 sequence (P03303 1538-1719): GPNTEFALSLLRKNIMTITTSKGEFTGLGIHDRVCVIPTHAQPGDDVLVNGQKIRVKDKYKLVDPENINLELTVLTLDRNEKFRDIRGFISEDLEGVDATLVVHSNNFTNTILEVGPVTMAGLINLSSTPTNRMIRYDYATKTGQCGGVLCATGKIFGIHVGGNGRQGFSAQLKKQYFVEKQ

Row | Compound | kobs/I [1] | kobs/I [2] | kobs/I [3] | CC50 ([4]; line for HRV serotype 2) [nM] | CC50 ([4]; line for HRV serotype-14) [nM] | kobs/I ([2]; RVP serotype 2, progress curves, enzyme start experiments) | pEC50 [5] | pEC50 [6] | pEC50 [7] | CC50 ([4]; line for HRV serotype 1A) [nM] | CC50 ([4]; line for HRV serotype 10) [nM] | CC50 ([4]; line for HRV serotype 16) [nM] | CC50 ([4]; line for HRV serotype 39) [nM] | CC50 ([4]; line for HRV serotype 89) [nM] | pEC50 [8] | pEC50 [9] | kobs/I ([1]; RVP serotype-14, progress curves, enzyme start experiments) | pEC50 [10] | pEC50 [11]
1 | CCOC(=O)/C=C/[C@H](CCC(N)=O)NC(=O)[C@@H](CC(=O)[C@H](CC(C)C)NC(=O)SCC)Cc1ccccc1 [Compound 2, Ethyl-3-(EtSCO-L-LeuΨ[COCH2]-L-Phe-L-Gln)-E-Propenoate] | 47,000 M^−1sec^−1 | 4,600 M^−1sec^−1 | 10,410 M^−1sec^−1 | > 320000 | – | – | – | – | – | – | – | – | – | – | – | – | – | – | –
2 | CCOC(=O)/C=C/[C@H](CCC(N)=O)NC(=O)[C@@H](CC(=O)[C@@H](NC(=O)SCC)C(C)C)Cc1ccccc1 [Compound 4, Ethyl-3-(EtSCO-L-ValΨ[COCH2]-L-Phe-L-Gln)-E-Propenoate] | 180,000 M^−1sec^−1 | 17,800 M^−1sec^−1 | 34,600 M^−1sec^−1 | – | > 320000 | – | – | – | – | – | – | – | – | – | – | – | – | – | –
3 | CCOC(=O)/C=C/C(CCC(N)=O)NC(=O)C(CC(=O)C(NC(=O)SCc1ccccc1)C(C)C)Cc1ccccc1 [Compound 5, Ethyl-3-(BnSCO-L-ValΨ[COCH2]-L-Phe-L-Gln)-E-Propenoate] | 500,000 M^−1sec^−1 | 26,900 M^−1sec^−1 | 89,700 M^−1sec^−1 | – | – | – | – | – | – | – | – | – | – | – | – | – | – | – | –
4 | CCOC(=O)/C=C/C(CCC(N)=O)NC(=O)C(CC(=O)C(CC(C)C)NC(=O)SCc1ccccc1)Cc1ccccc1 [Compound 6, Ethyl-3-(BnSCO-L-LeuΨ[COCH2]-L-Phe-L-Gln)-E-Propenoate] | 87,600 M^−1sec^−1 | 13,350 M^−1sec^−1 | 23,230 M^−1sec^−1 | – | – | – | – | – | – | – | – | – | – | – | – | – | – | – | –
5 | CCOC(=O)/C=C/[C@H](CCC(N)=O)NC(=O)[C@@H](CC(=O)[C@H](CC(C)C)NC(=O)SC1CCCC1)Cc1ccccc1 [Compound 8, Ethyl-3-(CyPentylSCO-L-LeuΨ[COCH2]-L-Phe-L-Gln)-E-Propenoate] | 55,700 M^−1sec^−1 | 7,000 M^−1sec^−1 | 14,200 M^−1sec^−1 | – | – | 7,000 M^−1sec^−1 | – | – | – | – | – | – | – | – | – | – | – | – | –
6 | CCOC(=O)/C=C/C(CCC(N)=O)NC(=O)C(CC(=O)C(NC(=O)SC1CCCC1)C(C)C)Cc1ccc(F)cc1 (centres unmarked) [Compound 14] | – | – | – | > 10000 | > 10000 | – | 7.70 | 7.10 | 6.77 | > 10000 | > 10000 | > 10000 | > 10000 | > 10000 | – | – | – | – | –
7 | CCOC(=O)/C=C/C(CCC(N)=O)NC(=O)C(CC(=O)C(NC(=O)SC1CCCC1)C(C)C)Cc1ccc(C(F)(F)F)cc1 [Compound 16, Ethyl-3-(CyPentylSCO-L-ValΨ[COCH2]-L-(p-CF3)Phe-L-Gln)-E-Propenoate] | – | – | – | > 3000 | > 3000 | – | 7.30 | 7.10 | – | > 3000 | > 3000 | > 3000 | > 3000 | > 3000 | 6.82 | 6.70 | – | – | –
8 | CC(=O)N1CC/C(=C\C(CCC(N)=O)NC(=O)C(CC(=O)C(NC(=O)SC2CCCC2)C(C)C)Cc2ccc(C)cc2)C1=O [Compound 17, [CyPentylSCO-L-ValΨ[COCH2]-L-(p-CH3)Phe-L-Gln]-E-1-Acetyl-3-methylene-pyrrolidin-2-one] | – | – | – | > 10000 | > 10000 | – | 7.57 | – | – | – | – | – | > 10000 | – | – | 6.32 | – | – | –
9 | CCOC(=O)/C=C/C(CCC(N)=O)NC(=O)C(CC(=O)C(CC(C)C)NC1CCCC1)Cc1ccc(F)cc1 (centres unmarked) [Compound 19] | – | – | – | > 3000 | > 3000 | – | 6.55 | – | 6.22 | > 3000 | > 3000 | – | – | – | 5.80 | – | 67,200 M^−1sec^−1 | 6.15 | –
10 | CCOC(=O)/C=C/C(CCC(N)=O)NC(=O)C(CC(=O)C(CC(C)C)NC(=O)SC1CCCC1)Cc1ccc(C)cc1 [Compound 21, Ethyl-3-(CyPentylSCO-L-LeuΨ[COCH2]-L-(p-CH3)Phe-L-Gln)-E-Propenoate] | – | – | – | > 10000 | > 10000 | – | – | – | 6.25 | > 10000 | > 10000 | – | – | – | 5.85 | – | – | 6.00 | –
11 | CCOC(=O)/C=C/C(CCC(N)=O)NC(=O)C(CC(=O)C(NC(=O)SC1CCCC1)C(C)(C)C)Cc1ccccc1 [Compound 22, Ethyl-3-(CyPentylSCO-L-tert-LeuΨ[COCH2]-L-Phe-L-Gln)-E-Propenoate] | – | – | – | > 32000 | > 32000 | – | 7.30 | – | 6.37 | > 32000 | > 32000 | > 32000 | > 32000 | > 32000 | – | 6.40 | – | – | 6.40
12 | CCOC(=O)/C=C/[C@H](CCC(N)=O)NC(=O)[C@@H](CC(=O)[C@@H](NC(=O)OC1CCCC1)C(C)C)Cc1ccc(F)cc1 [Compound 25, Ethyl-3-(CyPentylOCO-L-ValΨ[COCH2]-L-(p-F)Phe-L-Gln)-E-Propenoate] | – | – | – | > 3000 | > 3000 | – | 6.85 | 6.49 | 6.05 | > 3000 | > 3000 | > 3000 | > 3000 | > 3000 | 5.77 | 6.25 | – | – | 6.15
13 | Ethyl-3-(CBZ-L-LeuΨ[COCH2]-D/L-Phe-L-Gln)-E-Propenoate [Compound 1 + 9 (˜1:1)] | – | – | – | – | – | – | 5.89 | 5.29 | – | – | – | – | – | – | 5.39 | – | – | 5.70 | 5.55

— patent US20040072907A1, “Antipicornaviral compounds, compositions containing them, and methods for their use” (priority 1997, published 2004)
